Laboratory results: patent publication US5560923A (Georgetown University, priority 1994, dated 1996)

Legend:
[1] = Complex formation of drug with cardiolipin-containing liposomes (centrifugation, spectrophotometry of supernatant); format: physicochemical; conditions: same conditions as doxorubicin, mixed with cardiolipin-containing liposomes
Method: Formation of the complex liposome-doxorubicin was evaluated relative to the time of the incubation at 25° C. following the mixing of both components (FIG. 1).
Association capacity of doxorubicin to cardiolipin-liposomes was evaluated for different concentrations of mixture of both components mixed in the same volume (5 ml) after an incubation of 15 min. at 37° C. at a fixed liposome/doxorubicin weight ratio of 11 (Table 1).

LZ cells = test: Clonogenic assay, cytotoxicity / multidrug resistance reversal in LZ cells; conditions: mixed with cardiolipin-containing liposomes
Method: Percent survival of treated cells was determined relative to untreated control.

Compound: CC[C@]1(O)C[C@H]2CN(CCc3c([nH]c4ccccc34)[C@@](C(=O)OC)(c3cc4c(cc3OC)N(C=O)[C@H]3[C@@](O)(C(=O)OC)[C@H](OC(C)=O)[C@]5(CC)C=CCN6CC[C@]43[C@@H]65)C2)C1 [vincristine]
- association between drug and liposome (in words) [1]: no association between drug and liposome was formed
- increase in drug cytotoxicity (in words) (LZ cells): no increase in drug cytotoxicity was observed
